The subject of this test is amphetamine-induced rats. The test is described as follows: Amphetamine-induced locomotor activity and stereotypic behaviour, open field arena (Example 2, Studies 1, 2, 4). It counts as in vivo, rat. To be noted: for normalised total stereotypic behaviour, compared to vehicle-amphetamine group / total distance travelled, compared to vehicle-amphetamine group: amphetamine at t=30 min; for locomotor activity compared to the vehicle-amphetamine group (conclusion) / stereotypic behaviour compared to the vehicle-amphetamine group (conclusion): risperidone 1 mg/kg.
Excerpt: Dopaminergic models for Tourette's syndrome use systemic or focal administration of dopamine agonists such as amphetamine. After injection with amphetamine, a test animal expresses stereotypic behaviour. In particular, involvement of a dopaminergic system implicated in Tourette's syndrome wild type mice and rats can be stimulated with amphetamine and the resulting hyperactivity and stereotypies can be reversed with dopamine antagonists such as risperidone and haloperidol (Tourette's syndrome—Animal Models for Screening, Charles River Discovery Research Services, Finland).
All animal experiments were carried out according to the National Institute of Health (NIH) guidelines for the care and use of laboratory animals, and approved by the National Animal Experiment Board, Finland. Male CD (Charles River Laboratories, Germany) at weight range of 200-250 g (165-200 g upon arrival) were used for the experiments. Animals were housed at a standard temperature (22±1° C.) and in a light-controlled environment (lights on from 7 am to 8 pm) with ad libitum access to food and water.
Locomotor activity of the rats was tested in open field arena. The open field test was performed during the rat light cycle and under a normal lighting evenly distributed to the test chambers. The paths of the rats were recorded by activity monitor (Med. Associates Inc.).
Dosing the vehicle, vehicle-amphetamine, (+)-α-DHTBZ or risperidone was done prior to LMA test. The rats were placed in the centre of the arena, and the path was recorded for 60 minutes.
(§1) Animals were grouped as follows: • Group 1: 10 rats treated with Vehicle (t=0 min) and Vehicle (t=30 min) • Group 2: 10 rats treated with Vehicle (t=0 min) and Amphetamine (t=30 min) • Group 3: 10 rats treated with (+)-α-DHTBZ 0.5 mg/kg (t=0 min) and Amphetamine (t=30 min) • Group 4: 10 rats treated with (+)-α-DHTBZ 1 mg/kg (t=0 min) and Amphetamine (t=30 min) • Group 5: 10 rats treated with (+)-α-DHTBZ 1.5 mg/kg (t=0 min) and Amphetamine (t=30 min) • Group 6: 10 rats treated with (+)-α-DHTBZ 2 mg/kg (t=0 min) and Amphetamine (t=30 min) • Group 7: 10 rats treated with risperidone 1 mg/kg (t=0 min) and Amphetamine (t=30 min)
Rats dosed with either vehicle, (+)-α-DHTBZ 0.5 mg/kg, (+)-α-DHTBZ 1 mg/kg, (+)-α-DHTBZ 1.5 mg/kg, (+)-α-DHTBZ 2 mg/kg or Risperidone 1 mg/kg were subjected to LMA testing first for 30 min and then for 60 minutes after vehicle or amphetamine challenge. Resulting locomotor activity was evaluated in 3 min bins and as a total over the testing period.
Rats dosed with either vehicle, (+)-α-DHTBZ 0.5 mg/kg, (+)-α-DHTBZ 1 mg/kg, (+)-α-DHTBZ 1.5 mg/kg, (+)-α-DHTBZ 2 mg/kg or Risperidone 1 mg/kg were subjected to LMA testing first for 30 min and then for 60 minutes after vehicle or amphetamine challenge. Resulting stereotypic activity was evaluated in 3 min bins and as a total over the testing period.
Animals were grouped as follows: • Group 1: 10 rats treated with Vehicle (t=0 min) and Vehicle (t=30 min) • Group 2: 10 rats treated with Vehicle (t=0 min) and Amphetamine (t=30 min) • Group 3: 10 rats treated with (+)-α-DHTBZ 0.1 mg/kg (t=0 min) and Amphetamine (t=30 min) • Group 4: 10 rats treated with (+)-α-DHTBZ 0.25 mg/kg (t=0 min) and Amphetamine (t=30 min) • Group 5: 10 rats treated with risperidone 1 mg/kg (t=0 min) and Amphetamine (t=30 min)
as §1, with “(+)-α-DHTBZ 1” for “(+)-α-DHTBZ 0.5”, “(+)-α-DHTBZ 1.5” for “(+)-α-DHTBZ 1”, “with Valbenazine 1” for “with (+)-α-DHTBZ 1.5”, “with Valbenazine 1.5” for “with (+)-α-DHTBZ 2”

The mark [1] stands for this setting: Study 1, (+)-α-DHTBZ at all the tested doses (0.5, 1, 1.5, 2 mg/kg).

SMILES strings stand for the structures.

These results are taken from patent US20220211678A1, “USES OF (+)-A-DIHYDROTETRABENAZINE IN METHODS OF TREATING MOVEMENT DISORDER” (ADEPTIO PHARMACEUTICALS LIMITED, priority 2017, published 2022).

Turning to `COc1cc2c(cc1OC)[C@H]1C[C@@H](O)[C@H](CC(C)C)CN1CC2` [(+)-α-dihydrotetrabenazine, (R,R,R)-3-isobutyl-9,10-dimethyloxy-1,3,4,5,7,11b-hexahydro-2H-pyrido[2,1-a]isoquinolin-2-ol], the “normalised total stereotypic behaviour, compared to vehicle-amphetamine group” value is recorded as “significantly different” (Study 1, 0.5 mg/kg); “significantly different” (Study 1, 1 mg/kg); “significantly different” (Study 1, 1.5 mg/kg); “significantly different” (Study 1, 2 mg/kg); “significantly different” (Study 2, 0.1 mg/kg); “significantly different” (Study 2, 0.25 mg/kg). Further, the “normalised total stereotypic behaviour, compared to vehicle-amphetamine group” value by setting is: (Study 4, 1 mg/kg) “significantly different”; (Study 4, 1.5 mg/kg) “significantly different”. Also, the “locomotor activity compared to the vehicle-amphetamine group (conclusion)” value is on record as “lower locomotor activity” under setting [1] and “lower locomotor activity” (Study 2, (+)-α-DHTBZ at 0.25 mg/kg). Further, the “stereotypic behaviour compared to the vehicle-amphetamine group (conclusion)” value by setting is: under setting [1], “reduced stereotypic behaviour”; (Study 2, (+)-α-DHTBZ at both the tested doses (0.1, 0.25 mg/kg)) “reduced stereotypic behaviour”. The “locomotor activity compared to the vehicle-amphetamine group and the corresponding dose of Valbenazine (conclusion)” value (Study 4, 1 mg/kg and 1.5 mg/kg) is “lower locomotor activity”. The “total distance travelled, compared to vehicle-amphetamine group” value (Study 4, 1 mg/kg) was “significantly different” and the “total distance travelled, compared to vehicle-amphetamine group” value (Study 4, 1.5 mg/kg) was “significantly different”. The “stereotypic behaviour compared to the vehicle-amphetamine group and the corresponding dose of Valbenazine (conclusion)” value (Study 4, both the tested doses (1 mg/kg and 1.5 mg/kg)) is on record as “reduced stereotypic behaviour”.
